Measurements: US10865203B2, “Ligands selective to alpha 6 subunit-containing GABAA receptors and their methods of use” (UWM Research Foundation, Inc., priority 2015, dated 2020)

What was measured:
[1] = Pharmacokinetic study in rats, plasma and brain; conditions: for total concentration in rat brain tissue: nanoemulsion or suspension; for half-life: male, Wistar, rat, ip, 10 mg/kg
From the text: Five pharmacokinetic studies have been performed; four in male Wistar rats and one in male Swiss mice. […] In a separate in vitro experiment, the rapid equilibrium dialysis assay was used to determine free fraction of DK-I-56-1 in rat plasma and brain tissue.

[2] = Microsomal stability assay, mouse liver microsomes; assay type: in vitro ADME; conditions: for stability in Mouse liver microsomes: Table 2
Procedure, shortened: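 Test compound at 10 μM was preincubated 5 min at 37 °C in phosphate buffer pH 7.4 with NADPH regenerating system, then started with human or mouse liver microsomes at 0.5 mg/mL protein. Samples were taken at 0–60 min and quenched in cold acetonitrile with internal standard. Slope k came from ln peak-area ratio versus time, three repeats in duplicate.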

[3] = system: binary αxβ3 (x=1, 2, 3, 5) receptors; experiment: Electrophysiology in Xenopus oocytes, binary receptors; assay type: cell-based, rat
Procedure: Mature female Xenopus laevis (Nasco, Fort Atkinson, Wis., USA) were anaesthetized in a bath of ice-cold 0.17% Tricain (Ethyl-m-aminobenzoat, Sigma-Aldrich, St. Louis, Mo., USA) before decapitation and transfer of the frog's ovary to ND96 medium (96 mM NaCl, 2 mM KCl, 1 mM MgCl2, 5 mM HEPES; pH 7.5). Following incubation in 1 mg/mL collagenase (Sigma-Aldrich, St. Louis, Mo., USA) for 30 min, stage 5 to 6 oocytes were singled out of the ovary and defolliculated using a platinum wire loop. Oocytes were stored and incubated at 18° C. in NDE medium (96 mM NaCl, 2 mM KCl, 1 mM MgCl2, 5 mM HEPES, 1.8 mM CaCl2; pH 7.5) that was supplemented with 100 U per mL-1 penicillin, 100 μg per mL-1 streptomycin and 2.5 mM pyruvate. Oocytes were injected with an aqueous solution of mRNA. A total of 2.5 ng of mRNA per oocyte was injected. Subunit ratio was 1:1:5 for αxβγ2 (x=1, 2, 3, 5) and 3:1:5 for α4/6β3γ2 and αβδ receptors. Injected oocytes were incubated for at least 36 h before electrophysiological recordings. Oocytes were placed on a nylon-grid in a bath of NDE medium. For current measurements, the oocytes were impaled with two microelectrodes (2-3MΩ), which were filled with 2 M KCl. The oocytes were constantly washed by a flow of 6 mL per min-1 NDE that could be switched to NDE containing GABA and/or drugs. Drugs were diluted into NDE from DMSO solutions resulting in a final concentration of 0.1% DMSO. Maximum currents measured in mRNA injected oocytes were in the microampere range for all receptor subtypes. […] Data were digitized using a Digidata 1322A or 1550 data acquisition system (Axon Instruments, Union City, Calif., USA), recorded using Clampex 10.5 software (Molecular Devices, Sunnyvale, Calif., USA), and analyzed using Clampfit 10.5 and GraphPad Prism 6.0 (La Jolla, Calif., USA) software. […]
For selected test compounds full dose response curves were recorded in α1-6β3γ2 receptors. […]

[4] = 10 μM test compound, 0.5 mg/mL protein, 37° C.

SMILES | total concentration in rat brain tissue ([1]; 10 mg/kg i.p.) | % left after 1 hr. (MLM) [2, 4] [%] | stability in Mouse liver microsomes [2] [%] | half-life at 10 μM ([2]; mouse, liver microsomes, pH 7.4, 10 μM test compound, 0.5 mg/mL protein, 37° C., read-out: Half-life (min) (MLM)) | efficacy in binary αxβ3 receptors [3] | Half-life (min) (MLM) [2, 4] | half-life ([1]; in vivo) [h] | higher stability compared to non-Deuterated (DK-II-13-1) ([2]; mouse liver microsomes) [%] | time of maximum concentration in rat brain tissue ([1]; 10 mg/kg i.p.) [h] | free concentrations in rat brain tissue ([1]; 10 mg/kg i.p., estimated from free fraction) [nM] | half-life ([1]; brain) [h]
COc1ccc(-n2nc3c4ccc(OC)cc4[nH]cc-3c2=O)cc1 [Compound 6, 7-Methoxy-2-(4-methoxyphenyl)-2,5-dihydro-3H-pyrazolo[4,3-c]quinolin-3-one] | high submicromolar concentrations | 80.35 ± 0.14 | 80 | 194 ± 11.4 | low efficacy | – | – | – | – | – | –
COc1cccc(-n2nc3c4cc(Cl)ccc4[nH]cc-3c2=O)c1 [LAU 159, 8-Chloro-2-(3-methoxyphenyl)-2,5-dihydro-3H-pyrazolo[4,3-c]quinolin-3-one] | – | 59.83 ± 0.23 | ~60 | – | low efficacy | 89.07 ± 5.22 | – | – | – | – | –
[2H]C([2H])([2H])Oc1ccc2c3nn(-c4ccc(OC)nc4)c(=O)c-3c[nH]c2c1 [DK-I-86-1, 7-Methoxy-d3-2-(6-methoxypyridin-3-yl)-2,5-dihydro-3H-pyrazolo[4,3-c]quinolin-3-one] | high submicromolar concentrations | 91.3 ± 0.12 | – | – | – | 550.6 ± 78 | ~9 | ~20 | – | – | –
COc1ccc(-n2nc3c4ccc(Br)cc4[nH]cc-3c2=O)cc1 [LAU 463, 7-Bromo-2-(4-methoxyphenyl)-2,5-dihydro-3H-pyrazolo[4,3-c]quinolin-3-one] | – | 69 ± 0.16 | – | – | low efficacy | 113.17 ± 5.15 | – | – | – | – | –
[2H]C([2H])([2H])Oc1ccc(-n2nc3c4ccc(OC)cc4[nH]cc-3c2=O)cc1 [DK-I-56-1, 7-Methoxy-2-(4-methoxy-d3-phenyl)-2,5-dihydro-3H-pyrazolo[4,3-c]quinolin-3-one] | micromolar concentrations | 92.8 ± 0.09 | – | – | – | 628.8 ± 73 | – | – | 3 | ≥ 100 | ~4
